Data on 2 compounds can be found in BindingDB's records for doi:10.1021/jm960837y (Boehringer Ingelheim Pharmaceuticals, 1997).

Assay [1] deals with T1, Gag-Pol polyprotein [600-1027,P835L]/[600-1155,P835L] (Human immunodeficiency virus 1, UniProt P03366, P835L).
T1 construct: 600-1027; 600-1155
Kind of assay: HIV-1 RT Assay. The source says: (§1) The IC50 of reverse transcriptase is the concentration that inhibits 50% of recombinant HIV-1 RT RNA-directed DNA polymerase activity in vitro.

The target in assay [2] is T2, Gag-Pol polyprotein [600-1027,Y787L]/[600-1155,Y787L] (Human immunodeficiency virus 1, UniProt P03366, Y787L).
T2 construct: 600-1027; 600-1155
Kind of assay: HIV-1 RT Assay. Conditions: pH 7.8; 22 °C.
Excerpt: as §1

Each structure is given as a SMILES string.

In general, IC50 refers to the concentration needed to halve the response being measured. Read a high IC50 as weaker potency in that assay. Take `CCN1c2ncccc2C(=O)N(C)c2ccc(-c3cc[nH]c3)nc21` [2-ethyl-9-methyl-5-(1H-pyrrol-3-yl)-2,4,9,15-tetraazatricyclo[9.4.0.0^{3,8}]pentadeca-1(11),3(8),4,6,12,14-hexaen-10-one]: the IC50 in assay [1] stood at 130 nM; in assay [2] it was 100 nM.

As for `CCN1c2ncccc2C(=O)N(C)c2ccc(-c3c[nH]c4cnccc34)nc21` [2-ethyl-9-methyl-5-{1H-pyrrolo[2,3-c]pyridin-3-yl}-2,4,9,15-tetraazatricyclo[9.4.0.0^{3,8}]pentadeca-1(11),3(8),4,6,12,14-hexaen-10-one], the IC50 in assay [1] is below 1 nM.
